According to the supplement of paper PMC10307832:

What was measured:
Experiment in all cases: relative viability (nuclei count vs DMSO), 5 days (fraction); higher = more cells survive
[1] = compound: C1=CC(=CC=C1NC(=S)NNC2=C(C=C(C=C2[N+](=O)[O-])C(F)(F)F)[N+](=O)[O-])F [Kobe2602] + O=C(CCCCCCC(=O)Nc1ccccc1)NO [Vorinostat] (partner 1 µM)
In short: (§1)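 Medians of duplicate plates are given as relative viability. That measure is the nuclei count in treated wells divided by the count in vehicle wells. Counts were taken on 4× images of lung cancer cell lines in 1536-well plates, 5 days after pin-tool dosing the day after seeding with one drug alone or a fixed anchor-drug dose plus five library-drug doses (not always all listed) in √10 steps.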

[2] = compound: C1=CC(=CC=C1NC(=S)NNC2=C(C=C(C=C2[N+](=O)[O-])C(F)(F)F)[N+](=O)[O-])F [Kobe2602] + COc1cccc2cc(-c3nc([C@H]4CC[C@H](C(=O)O)CC4)n4ncnc(N)c34)[nH]c12 [OSI-027] (partner 0.5 µM)
In short: as §1

[3] = compound: C1=CC(=CC=C1NC(=S)NNC2=C(C=C(C=C2[N+](=O)[O-])C(F)(F)F)[N+](=O)[O-])F [Kobe2602] + Nc1nc2[nH]cc(CCc3ccc(C(=O)N[C@@H](CCC(=O)O)C(=O)O)cc3)c2c(=O)[nH]1 [Pemetrexed] (partner 0.2 µM)
In short: as §1

[4] = compound: COc1cc2nccc(Oc3ccc(NC(=O)C4(C(=O)Nc5ccc(F)cc5)CC4)cc3)c2cc1OC [Cabozantinib] + CS(=O)(=O)N1CCN(Cc2cc3nc(-c4cccc5[nH]ncc45)nc(N4CCOCC4)c3s2)CC1 [Pictilisib] (partner 1 µM)
In short: as §1

Row | Cell Line | relative viability ([1]; first compound 0.2 µM) | relative viability ([1]; first compound 0.6325 µM) | relative viability ([1]; first compound 2 µM) | relative viability ([1]; first compound 6.325 µM) | relative viability ([1]; first compound 20 µM) | relative viability ([2]; first compound 0.2 µM) | relative viability ([2]; first compound 0.6325 µM) | relative viability ([2]; first compound 2 µM) | relative viability ([2]; first compound 6.325 µM) | relative viability ([2]; first compound 20 µM) | relative viability ([3]; first compound 0.2 µM) | relative viability ([3]; first compound 0.6325 µM) | relative viability ([3]; first compound 2 µM) | relative viability ([3]; first compound 6.325 µM) | relative viability ([3]; first compound 20 µM) | relative viability ([4]; first compound 0.02 µM) | relative viability ([4]; first compound 0.06325 µM) | relative viability ([4]; first compound 0.2 µM) | relative viability ([4]; first compound 0.6325 µM) | relative viability ([4]; first compound 2 µM)
1 | NCI-H1651 | 0.601 | 0.448 | 0.583 | 0.551 | 0.751 | 0.604 | 0.663 | 0.674 | 0.618 | 0.652 | 0.526 | 0.51 | 0.569 | 0.573 | 0.731 | 0.548 | 0.62 | 0.513 | 0.547 | 0.468
2 | NCI-H1666 | 1.06 | 1.04 | 1.13 | 1.01 | 0.981 | 0.879 | 0.831 | 0.851 | 0.928 | 0.789 | 0.81 | 0.861 | 1.01 | 0.934 | 0.861 | 0.404 | 0.4 | 0.396 | 0.503 | 0.439
3 | NCI-H1734 | 0.863 | 0.912 | 0.844 | 0.841 | 0.8 | 0.657 | 0.68 | 0.619 | 0.588 | 0.745 | 0.445 | 0.419 | 0.422 | 0.418 | 0.398 | 0.417 | 0.414 | 0.472 | 0.453 | 0.434
4 | NCI-H1755 | 0.743 | 0.743 | 0.671 | 0.744 | 0.802 | 0.748 | 0.726 | 0.685 | 0.705 | 0.747 | 0.514 | 0.419 | 0.447 | 0.391 | 0.398 | 0.445 | 0.534 | 0.383 | 0.358 | 0.309
5 | NCI-H1793 | 0.702 | 0.881 | 0.764 | 0.795 | 0.936 | 0.252 | 0.218 | 0.238 | 0.275 | 0.327 | 0.732 | 1.04 | 0.781 | 0.903 | 0.875 | 0.416 | 0.325 | 0.296 | 0.27 | 0.293
6 | NCI-H1915 | 0.523 | 0.549 | 0.478 | 0.534 | 0.557 | 0.596 | 0.71 | 0.612 | 0.656 | 0.643 | 0.489 | 0.498 | 0.458 | 0.503 | 0.45 | 0.929 | 1.04 | 0.903 | 0.949 | 0.908
7 | NCI-H1944 | 0.532 | 0.64 | 0.538 | 0.531 | 0.629 | 0.453 | 0.48 | 0.391 | 0.416 | 0.464 | 0.632 | 0.658 | 0.738 | 0.626 | 0.62 |  | 0.367 | 0.369 | 0.34 | 0.342
8 | NCI-H1975 | 0.68 | 0.74 | 0.626 | 0.678 | 0.701 | 0.673 | 0.79 | 0.687 | 0.676 | 0.669 | 0.271 | 0.306 | 0.265 | 0.294 | 0.286 | 0.28 | 0.322 | 0.297 | 0.303 | 0.337
